In PubChem BioAssay (NCI):
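GI50 = concentration required for 50% inhibition of growth. Definition used: TGI = concentration required for complete inhibition of growth.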

Key:
Assay in all cases: NCI-60 cell line screen, 384-well format
OVCAR-3 ovarian = tested on: OVCAR-3 ovarian
786-0 renal = tested on: 786-0 renal
SNB-75 CNS = tested on: SNB-75 CNS
A549 NSCLC = tested on: A549 NSCLC
T-47D breast = tested on: T-47D breast
MOLT-4 leukemia = tested on: MOLT-4 leukemia
MDA-MB-435 melanoma = tested on: MDA-MB-435 melanoma
TK-10 renal = tested on: TK-10 renal
HL-60(TB) leukemia = tested on: HL-60(TB) leukemia
HCT-15 colon = tested on: HCT-15 colon
K-562 leukemia = tested on: K-562 leukemia
SF-268 CNS = tested on: SF-268 CNS
RXF 393 renal = tested on: RXF 393 renal

CS(=O)(=O)N1CCN(Cc2cc3nc(-c4cccc5[nH]ncc45)nc(N4CCOCC4)c3s2)CC1
GI50 (OVCAR-3 ovarian): 280 nM
TGI (OVCAR-3 ovarian): 4390 nM
GI50 ([…]-0 renal): 492 nM
TGI (786-0 renal): 2770 nM
GI50 (SNB-75 CNS): 102 nM
TGI (SNB-75 CNS): 533 nM
GI50 (A549 NSCLC): 533 nM
TGI (A549 NSCLC): > 100000 nM
GI50 (T-47D breast): 49.4 nM
TGI (T-47D breast): 341 nM
GI50 (MOLT-4 leukemia): 82.2 nM
TGI (MOLT-4 leukemia): 363 nM
GI50 (MDA-MB-435 melanoma): 1180 nM
TGI (MDA-MB-435 melanoma): 11900 nM
GI50 (TK-10 renal): 203 nM
TGI (TK-10 renal): 1120 nM
GI50 (HL-60(TB) leukemia): 46.3 nM
TGI (HL-60(TB) leukemia): 593 nM
GI50 (HCT-15 colon): 708 nM
TGI (HCT-15 colon): 24100 nM
GI50 (K-562 leukemia): 5480 nM
TGI (K-562 leukemia): > 100000 nM
GI50 (SF-268 CNS): 1510 nM
TGI (SF-268 CNS): 23300 nM
GI50 (RXF 393 renal): 152 nM
TGI (RXF 393 renal): 638 nM

O=C(CCCCCCC(=O)N/N=C/c1ccc(N(c2ccccc2)c2ccccc2)cc1)NO
GI50 (OVCAR-3 ovarian): 673 nM
TGI (OVCAR-3 ovarian): 1900 nM
GI50 ([…]-0 renal): 1840 nM
TGI (786-0 renal): 3820 nM
GI50 (SNB-75 CNS): 2820 nM
TGI (SNB-75 CNS): 7800 nM
GI50 (A549 NSCLC): 1840 nM
TGI (A549 NSCLC): 3830 nM
GI50 (T-47D breast): 562 nM
TGI (T-47D breast): 1600 nM
GI50 (MOLT-4 leukemia): 471 nM
TGI (MOLT-4 leukemia): 1510 nM
GI50 (MDA-MB-435 melanoma): 3910 nM
TGI (MDA-MB-435 melanoma): 11900 nM
GI50 (TK-10 renal): 255 nM
TGI (TK-10 renal): 720 nM
GI50 (HL-60(TB) leukemia): 1280 nM
TGI (HL-60(TB) leukemia): 2560 nM
GI50 (HCT-15 colon): 2800 nM
TGI (HCT-15 colon): 7260 nM
GI50 (K-562 leukemia): 1420 nM
TGI (K-562 leukemia): 2750 nM
GI50 (SF-268 CNS): 1990 nM
TGI (SF-268 CNS): 3940 nM
GI50 (RXF 393 renal): 790 nM
TGI (RXF 393 renal): 2100 nM
